Experimental data from patent publication US7169800B2, “Imidazole compositions useful as inhibitors of protein kinases” (Vertex Pharmaceuticals Incorporated, priority 2003, dated 2007).

How the values were obtained:
Type in all cases: biochemical
c-Met = c-Met (Homo sapiens, UniProt P08581); assay: Ki determination for the inhibition of c-Met (coupled enzyme system); conditions: 200 μM ATP, 10 μM polyGluTyr, 80 nM c-Met, 30° C.
Protocol: Compounds were screened for their ability to inhibit c-Met kinase activity using a standard coupled enzyme system (Fox et al., Protein Sci. 1998, 7, 2249). Reactions were carried out in a solution containing 100 mM HEPES (pH 7.5), 10 mM MgCl2, 25 mM NaCl, 300 μM NADH, 1 mM DTT, and 1.5% DMSO. Final substrate concentrations in the assay were 200 μM ATP (Sigma Chemicals, St Louis, Mo.) and 10 μM polyGluTyr (Sigma Chemical Company, St. Louis). Reactions were carried out at 30° C. and 80 nM c-Met. Final concentrations of the components of the coupled enzyme system were 2.5 mM phosphoenolpyruvate, 300 μM NADH, 30 μg/ml pyruvate kinase and 10 μg/ml lactate dehydrogenase.
An assay stock buffer solution was prepared containing all of the reagents listed above with the exception of ATP and a test compound of the present invention. The assay stock buffer solution (175 μl) was incubated in a 96 well plate with 5 μl of the test compound of the present invention at final concentrations spanning 0.006 μM to 12.5 μM at 30° C. for 10 minutes. […] Rates of reaction were obtained using a Molecular Devices Spectramax plate reader (Sunnyvale, Calif.) over 10 minutes at 30° C. The Ki values were determined from the rate data as a function of inhibitor concentration.

JAK3 = biological target: T1, JAK3 (Homo sapiens, UniProt P52333); assay: JAK3 inhibition assay (33P incorporation); conditions: 5 uM ATP, 1 uM poly(Glu)4Tyr, 1 nM JAK3, 25C
T1 sequence (P52333 1-1124): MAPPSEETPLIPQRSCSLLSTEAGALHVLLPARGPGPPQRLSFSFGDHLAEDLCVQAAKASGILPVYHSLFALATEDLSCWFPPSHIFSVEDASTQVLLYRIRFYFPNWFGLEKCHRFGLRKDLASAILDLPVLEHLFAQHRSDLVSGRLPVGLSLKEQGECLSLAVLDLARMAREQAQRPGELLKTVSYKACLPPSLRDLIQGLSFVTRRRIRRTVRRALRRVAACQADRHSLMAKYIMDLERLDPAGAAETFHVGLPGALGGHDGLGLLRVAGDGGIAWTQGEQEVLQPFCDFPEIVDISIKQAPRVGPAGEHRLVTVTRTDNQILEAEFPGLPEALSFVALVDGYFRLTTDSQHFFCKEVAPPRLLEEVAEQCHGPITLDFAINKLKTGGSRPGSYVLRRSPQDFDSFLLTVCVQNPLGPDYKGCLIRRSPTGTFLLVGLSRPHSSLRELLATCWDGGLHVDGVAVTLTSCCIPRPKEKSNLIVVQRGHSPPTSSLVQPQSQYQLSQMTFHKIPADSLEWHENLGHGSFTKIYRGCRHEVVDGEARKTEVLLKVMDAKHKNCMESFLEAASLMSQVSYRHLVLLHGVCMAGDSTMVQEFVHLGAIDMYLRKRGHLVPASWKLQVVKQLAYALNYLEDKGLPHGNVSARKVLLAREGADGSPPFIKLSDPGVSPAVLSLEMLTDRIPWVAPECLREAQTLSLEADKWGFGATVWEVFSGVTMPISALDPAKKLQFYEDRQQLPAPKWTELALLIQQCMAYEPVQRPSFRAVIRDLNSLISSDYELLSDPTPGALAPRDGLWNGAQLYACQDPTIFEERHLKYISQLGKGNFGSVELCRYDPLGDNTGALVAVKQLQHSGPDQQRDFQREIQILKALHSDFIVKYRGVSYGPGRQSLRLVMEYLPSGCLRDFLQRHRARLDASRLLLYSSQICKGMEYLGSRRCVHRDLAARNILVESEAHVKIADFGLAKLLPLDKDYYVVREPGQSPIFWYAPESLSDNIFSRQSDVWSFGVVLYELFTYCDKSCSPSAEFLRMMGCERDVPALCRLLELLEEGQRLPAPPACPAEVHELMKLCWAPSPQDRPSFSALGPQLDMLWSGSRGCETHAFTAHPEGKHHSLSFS
Protocol: • kinase buffer: (100 mM HEPES pH 7.4; 1 mM DTT; 10 mM MgCl2; 25 mM NaCl; and 0.01% BSA) • 1 nM JAK3 (enzyme) • 1 uM poly(Glu)4Tyr (substrate) • 5 uM ATP (substrate, 200 uCi/umole ATP) Procedure
To each well of a 96 well polycarbonate plate is added 1.5 ul of a candidate JAK3 inhibitor along with 50 ul of kinase buffer containing 2 uM poly(Glu)4Tyr and 10 uM ATP. This is then mixed and 50 ul of kinase buffer containing 2 nM JAK3 enzyme is added to start the reaction. After 20 minutes at room temperature (25C), the reaction is stopped with 50 ul of 20% trichloroacetic acid (TCA) that also contains 0.4 mM ATP. The entire content of each well is then transferred to a 96 well glass fiber filter plate using a TomTek Cell Harvester. After washing, 60 ul of scintillation fluid is added and 33P incorporation detected on a Perkin Elmer TopCount.

KDR = KDR (Homo sapiens, UniProt P35968); assay: KDR enzyme assay (coupled enzyme assay); conditions: 300 μM ATP, 10 μM poly E4Y, 30 nM KDR, 37° C.; read-out: Ki value, inhibition of KDR
Protocol: Compounds were screened for their ability to inhibit KDR using a standard coupled enzyme assay (Fox et al., Protein Sci., (1998) 7, 2249). Assays were carried out in a mixture of 200 mM HEPES 7.5, 10 mM MgCl2, 25 mM NaCl, 1 mM DTT and 1.5% DMSO. Final substrate concentrations in the assay were 300 μM ATP (Sigma Chemicals) and 10 μM poly E4Y (Sigma). Assays were carried out at 37° C. and 30 nM KDR. Final concentrations of the components of the coupled enzyme system were 2.5 mM phosphoenolpyruvate, 200 μM NADH, 30 μg/ML pyruvate kinase and 10 μg/ml lactate dehydrogenase.
An assay stock buffer solution was prepared containing all of the reagents listed above, with the exception of ATP and the test compound of interest. 177 μl of the stock solution was placed in a 96 well plate followed by addition of 3 μl of 2 mM DMSO stock containing the test compound (final compound concentration 30 μM). The plate was preincubated for about 10 minutes at 37° C. and the reaction initiated by addition of 20 μl of ATP (final concentration 300 μM). Rates of reaction were obtained using a Molecular Devices plate reader (Sunnyvale, Calif.) over a 5 minute read time at 37° C.

Chain of KDR (P35968 20-1356): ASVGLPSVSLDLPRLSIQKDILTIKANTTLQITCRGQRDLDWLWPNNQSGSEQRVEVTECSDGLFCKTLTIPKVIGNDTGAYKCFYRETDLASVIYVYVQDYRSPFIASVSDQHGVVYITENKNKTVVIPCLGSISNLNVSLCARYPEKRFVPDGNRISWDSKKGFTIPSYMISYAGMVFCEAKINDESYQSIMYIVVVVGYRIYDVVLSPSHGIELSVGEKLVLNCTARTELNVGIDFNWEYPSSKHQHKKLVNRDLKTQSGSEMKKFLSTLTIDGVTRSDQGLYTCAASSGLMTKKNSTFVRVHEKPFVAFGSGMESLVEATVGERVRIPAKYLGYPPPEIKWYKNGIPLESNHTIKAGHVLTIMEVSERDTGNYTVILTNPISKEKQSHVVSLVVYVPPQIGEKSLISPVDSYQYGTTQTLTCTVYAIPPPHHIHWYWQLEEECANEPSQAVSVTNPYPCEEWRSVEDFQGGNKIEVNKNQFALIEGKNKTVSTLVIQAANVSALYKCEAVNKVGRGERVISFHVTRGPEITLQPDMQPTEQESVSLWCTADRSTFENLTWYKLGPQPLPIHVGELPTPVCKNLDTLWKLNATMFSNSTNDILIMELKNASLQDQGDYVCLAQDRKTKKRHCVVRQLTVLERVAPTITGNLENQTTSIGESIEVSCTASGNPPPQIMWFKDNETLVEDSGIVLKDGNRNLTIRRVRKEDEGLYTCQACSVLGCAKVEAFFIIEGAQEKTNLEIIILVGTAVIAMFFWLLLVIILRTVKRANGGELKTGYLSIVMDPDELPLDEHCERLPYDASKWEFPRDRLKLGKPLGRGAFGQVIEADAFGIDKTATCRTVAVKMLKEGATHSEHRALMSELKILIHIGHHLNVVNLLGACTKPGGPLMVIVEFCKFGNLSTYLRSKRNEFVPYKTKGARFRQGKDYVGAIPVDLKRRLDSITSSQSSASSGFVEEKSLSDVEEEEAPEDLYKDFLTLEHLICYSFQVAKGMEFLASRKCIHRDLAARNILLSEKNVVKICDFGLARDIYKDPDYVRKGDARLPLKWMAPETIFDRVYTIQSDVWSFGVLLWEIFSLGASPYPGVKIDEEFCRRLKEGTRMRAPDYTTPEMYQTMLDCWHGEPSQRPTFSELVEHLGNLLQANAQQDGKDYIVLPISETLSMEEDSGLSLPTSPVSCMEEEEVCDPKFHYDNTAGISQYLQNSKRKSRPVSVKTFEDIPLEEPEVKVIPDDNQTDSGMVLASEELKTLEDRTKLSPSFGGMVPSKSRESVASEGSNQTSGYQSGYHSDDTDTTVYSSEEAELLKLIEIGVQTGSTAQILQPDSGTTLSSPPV
Chain of c-Met (P08581 25-1390): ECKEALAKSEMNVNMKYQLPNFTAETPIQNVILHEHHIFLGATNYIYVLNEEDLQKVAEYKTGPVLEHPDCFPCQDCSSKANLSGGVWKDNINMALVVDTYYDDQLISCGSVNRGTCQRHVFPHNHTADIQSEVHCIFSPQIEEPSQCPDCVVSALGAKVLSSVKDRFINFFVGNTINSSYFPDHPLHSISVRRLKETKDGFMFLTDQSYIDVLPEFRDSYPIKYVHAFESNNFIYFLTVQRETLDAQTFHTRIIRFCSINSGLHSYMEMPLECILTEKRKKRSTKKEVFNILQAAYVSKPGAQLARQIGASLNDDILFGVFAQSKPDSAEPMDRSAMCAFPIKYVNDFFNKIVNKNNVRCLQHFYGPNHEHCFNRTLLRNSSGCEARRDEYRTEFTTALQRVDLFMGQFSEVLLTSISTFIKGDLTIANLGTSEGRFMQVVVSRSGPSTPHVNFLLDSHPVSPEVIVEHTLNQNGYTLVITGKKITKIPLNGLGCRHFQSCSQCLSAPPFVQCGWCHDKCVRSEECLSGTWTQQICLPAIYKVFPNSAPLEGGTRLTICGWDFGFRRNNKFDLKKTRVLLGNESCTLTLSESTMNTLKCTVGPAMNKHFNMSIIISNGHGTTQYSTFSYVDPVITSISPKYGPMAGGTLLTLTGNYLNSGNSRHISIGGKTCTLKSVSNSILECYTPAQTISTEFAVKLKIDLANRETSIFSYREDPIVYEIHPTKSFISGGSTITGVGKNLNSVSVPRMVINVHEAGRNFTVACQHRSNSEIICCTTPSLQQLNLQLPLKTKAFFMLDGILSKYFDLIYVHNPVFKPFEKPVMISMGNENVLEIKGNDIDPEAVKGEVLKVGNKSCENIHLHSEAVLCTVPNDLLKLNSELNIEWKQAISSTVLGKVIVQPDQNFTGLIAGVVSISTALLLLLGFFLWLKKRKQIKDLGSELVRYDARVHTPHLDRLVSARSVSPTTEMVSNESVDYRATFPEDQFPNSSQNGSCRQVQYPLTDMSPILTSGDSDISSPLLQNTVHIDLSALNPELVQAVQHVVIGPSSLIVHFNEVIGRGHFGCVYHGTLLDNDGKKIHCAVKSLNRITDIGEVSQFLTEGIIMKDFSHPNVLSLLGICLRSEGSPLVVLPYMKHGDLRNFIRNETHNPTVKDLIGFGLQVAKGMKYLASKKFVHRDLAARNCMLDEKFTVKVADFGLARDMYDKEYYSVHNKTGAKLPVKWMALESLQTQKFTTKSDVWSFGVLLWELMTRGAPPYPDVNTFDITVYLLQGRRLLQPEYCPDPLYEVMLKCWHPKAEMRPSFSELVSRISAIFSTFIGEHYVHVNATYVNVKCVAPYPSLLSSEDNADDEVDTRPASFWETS

## O=C(c1nc(-c2oncc2-c2cccc(F)c2F)c[nH]1)N1CC=CC1 [Compound I-38, {4-[4-(2,3-Difluoro-phenyl)-isoxazol-5-yl]-1H-imidazol-2-yl}-(2,5-dihydro-pyrrol-1-yl)-methanone]
c-Met
  Ki: < 1000 nM
JAK3
  Ki: < 1000 nM
KDR
  Ki: < 5000 nM
